Assay results published in US11566057B2, “Long-acting co-agonists of the glucagon and GLP-1 receptors” (Merck Sharp & Dohme Corp., priority 2017, dated 2023).
Read-outs that look alike come from different tables or passages of the source. Numbered stars: 1 amine (or outer) side, 2 acyl side, 3 side chain; on linkers, the order of the positions; unused ones are H or OH. Square brackets hold non-standard residues; d marks the D form. Side chains are listed from the residue outwards. Peptide text beside a SMILES is read from it. * marks the point of attachment. C20 diacid = O=C(O)CCCCCCCCCCCCCCCCCCC(=O)*; Phe(4-CH2NH2) = NCc1ccc(C[C@H](N)C(=O)O)cc1; C18 diacid = O=C(O)CCCCCCCCCCCCCCCCC(=O)*; C16 diacid = O=C(O)CCCCCCCCCCCCCCC(=O)*; γGlu = O=C(O)[C@H](CCC(=O)[*:2])N[*:1]; Met(O2) = CS(=O)(=O)CC[C@H](N)C(=O)O; αMeS = C[C@](N)(CO)C(=O)O; AEEA = NCCOCCOCC(=O)O; Aib = CC(C)(N)C(=O)O

Columns and labels:
human GCGR = target: T1, human GCGR (Homo sapiens, UniProt P47871); assay: cAMP activity assay at the Glucagon receptor (GCGR); assay type: cell-based; conditions: for hGCGR/hGLP1R (hTone): ratio of GCGR EC50 to GLP1R EC50
T1 construct: expressed in transfected cells; growth medium holds Blasticidin and Hygromycin
T1 sequence (P47871 26-477): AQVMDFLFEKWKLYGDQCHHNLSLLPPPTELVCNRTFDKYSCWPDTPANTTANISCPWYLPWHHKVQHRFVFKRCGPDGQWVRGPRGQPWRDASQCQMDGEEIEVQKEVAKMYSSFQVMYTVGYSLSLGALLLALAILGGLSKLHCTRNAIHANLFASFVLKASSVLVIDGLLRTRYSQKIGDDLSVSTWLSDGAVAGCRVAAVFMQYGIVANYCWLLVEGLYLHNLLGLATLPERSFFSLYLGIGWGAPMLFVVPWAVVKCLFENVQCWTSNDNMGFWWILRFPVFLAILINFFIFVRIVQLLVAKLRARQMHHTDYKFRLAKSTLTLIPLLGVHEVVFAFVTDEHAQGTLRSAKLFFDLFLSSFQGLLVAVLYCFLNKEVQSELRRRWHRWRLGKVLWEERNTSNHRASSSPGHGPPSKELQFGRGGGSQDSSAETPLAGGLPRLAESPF
Summary of the method: (§1)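 Peptides serially diluted from DMSO (10 points) and added to frozen-stock cells bearing human GLP1R (10,000 cells/well) or GCGR (30,000 cells/well), 1 h at RT, dark. EC50 by four-parameter logistic fit of HitHunter cAMPXS luminescence, read following overnight RT incubation.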

human GLP1R = target: T2, human GLP1R (Homo sapiens, UniProt P43220); assay: cAMP activity assay at the GLP-1 receptor (GLP1R); assay type: cell-based
T2 construct: expressed in transfected cells; growth medium holds Blasticidin and Hygromycin
T2 sequence (P43220 24-463): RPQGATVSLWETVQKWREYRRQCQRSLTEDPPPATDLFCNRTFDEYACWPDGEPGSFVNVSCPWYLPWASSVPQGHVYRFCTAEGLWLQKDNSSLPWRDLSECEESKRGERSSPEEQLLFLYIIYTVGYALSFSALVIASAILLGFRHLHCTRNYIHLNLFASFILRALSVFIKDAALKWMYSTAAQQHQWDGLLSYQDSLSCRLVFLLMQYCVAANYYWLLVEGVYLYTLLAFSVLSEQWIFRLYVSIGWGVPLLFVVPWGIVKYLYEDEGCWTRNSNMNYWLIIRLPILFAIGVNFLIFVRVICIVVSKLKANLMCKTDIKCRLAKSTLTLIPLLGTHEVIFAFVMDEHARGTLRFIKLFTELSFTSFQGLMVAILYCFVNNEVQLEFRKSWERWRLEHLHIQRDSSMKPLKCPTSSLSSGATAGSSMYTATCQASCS
Summary of the method: as §1

[1] = cells expressing human GCGR, cAMP production, buffer with or without 20% human serum (not stated which), read-out: GCGR EC50 human
[2] = summary statement: EC50 at each of the glucagon and GLP-1 receptors, read-out: EC50 at the glucagon receptor
[3] = summary statement: EC50 at each of the glucagon and GLP-1 receptors, read-out: EC50 at the GLP-1 receptor
[4] = cells expressing human GLP1R, cAMP production, buffer with or without 20% human serum (not stated which), read-out: GLP1R EC50 human

Structure (SMILES) | EC50 (human GCGR; [1]) | hGCGR/hGLP1R (hTone) (human GCGR) | EC50 (human GCGR; [2]) | EC50 (human GLP1R; [3]) | EC50 (human GLP1R; [4])
CC(C)C[C@H](NC(=O)[C@H](Cc1ccc(O)cc1)NC(=O)[C@H](CCCCN)NC(=O)[C@H](CO)NC(=O)[C@H](Cc1ccc(O)cc1)NC(=O)[C@H](CC(=O)O)NC(=O)[C@H](CO)NC(=O)[C@@H](NC(=O)[C@H](Cc1ccccc1)NC(=O)[C@@H](NC(=O)CNC(=O)[C@H](CCC(N)=O)NC(=O)C(C)(C)NC(=O)[C@@H](N)Cc1c[nH]cn1)[C@@H](C)O)[C@@H](C)O)C(=O)N[C@@H](CC(=O)O)C(=O)N[C@@H](CCC(=O)O)C(=O)N[C@@H](CCCNC(=N)N)C(=O)N[C@@H](C)C(=O)N[C@@H](C)C(=O)N[C@@H](Cc1ccc(CNC(=O)COCCOCCNC(=O)COCCOCCNC(=O)CC[C@H](NC(=O)CCCCCCCCCCCCCCCCCCC(=O)O)C(=O)O)cc1)C(=O)N[C@@H](CC(=O)O)C(=O)N[C@@H](Cc1ccccc1)C(=O)N[C@H](C(=O)N[C@@H](CCC(N)=O)C(=O)N[C@@H](Cc1c[nH]c2ccccc12)C(=O)N[C@@H](CC(C)C)C(=O)N[C@@H](CC(C)C)C(=O)N[C@@H](CCCCN)C(=O)N[C@H](C(N)=O)[C@@H](C)O)C(C)C [TP586] (H-H[Aib]QGTFTSDYSKYLDERAA[Phe(4-CH2NH2)]([AEEA-AEEA-γGlu-C20 diacid])DFVQWLLKT-NH2; N-terminus assumed) | 4.95 nM | >4.0 | < 5 nM | < 5 nM | 
CC(C)C[C@H](NC(=O)[C@H](Cc1c[nH]c2ccccc12)NC(=O)[C@H](CCC(N)=O)NC(=O)[C@@H](NC(=O)[C@H](Cc1ccccc1)NC(=O)[C@H](CC(=O)O)NC(=O)[C@H](CCCCNC(=O)COCCOCCNC(=O)COCCOCCNC(=O)CC[C@H](NC(=O)CCCCCCCCCCCCCCCCCCC(=O)O)C(=O)O)NC(=O)[C@H](C)NC(=O)[C@H](C)NC(=O)[C@H](CCCNC(=N)N)NC(=O)C(C)(C)NC(=O)[C@H](CC(=O)O)NC(=O)[C@H](CC(C)C)NC(=O)[C@H](Cc1ccc(O)cc1)NC(=O)[C@H](CCCCN)NC(=O)[C@H](CO)NC(=O)[C@H](Cc1ccc(O)cc1)NC(=O)[C@H](CC(=O)O)NC(=O)[C@H](CO)NC(=O)[C@@H](NC(=O)[C@H](Cc1ccccc1)NC(=O)[C@@H](NC(=O)CNC(=O)[C@H](CCC(N)=O)NC(=O)[C@](C)(CO)NC(=O)[C@@H](N)Cc1c[nH]cn1)[C@@H](C)O)[C@@H](C)O)C(C)C)C(=O)N[C@@H](CCS(C)(=O)=O)C(=O)N[C@@H](CC(=O)O)C(=O)N[C@H](C(N)=O)[C@@H](C)O [TP593] (H-H[αMeS]QGTFTSDYSKYLD[Aib]RAAK([AEEA-AEEA-γGlu-C20 diacid])DFVQWL[Met(O2)]DT-NH2) | 0.73 nM | <0.15 |  |  | 4.95 nM
CC(C)C[C@H](NC(=O)[C@H](Cc1ccc(O)cc1)NC(=O)[C@H](CCCCN)NC(=O)[C@H](CO)NC(=O)[C@H](Cc1ccc(CNC(=O)COCCOCCNC(=O)CC[C@H](NC(=O)CCCCCCCCCCCCCCC(=O)O)C(=O)O)cc1)NC(=O)[C@H](CC(=O)O)NC(=O)[C@H](CO)NC(=O)[C@@H](NC(=O)[C@H](Cc1ccccc1)NC(=O)[C@@H](NC(=O)CNC(=O)[C@H](CCC(N)=O)NC(=O)C(C)(C)NC(=O)[C@@H](N)Cc1c[nH]cn1)[C@@H](C)O)[C@@H](C)O)C(=O)N[C@@H](CC(=O)O)C(=O)N[C@@H](C)C(=O)N[C@@H](CCCNC(=N)N)C(=O)N[C@@H](C)C(=O)N[C@@H](C)C(=O)N[C@@H](CCC(N)=O)C(=O)N[C@@H](CC(=O)O)C(=O)N[C@@H](Cc1ccccc1)C(=O)N[C@H](C(=O)N[C@@H](CCC(N)=O)C(=O)N[C@@H](Cc1c[nH]c2ccccc12)C(=O)N[C@@H](CC(C)C)C(=O)N[C@@H](CCS(C)(=O)=O)C(=O)N[C@@H](CC(=O)O)C(=O)N[C@H](C(N)=O)[C@@H](C)O)C(C)C [TP622] (H-H[Aib]QGTFTSD[Phe(4-CH2NH2)]([AEEA-γGlu-C16 diacid])SKYLDARAAQDFVQWL[Met(O2)]DT-NH2; N-terminus assumed) |  | 0.4 | < 5 nM | < 5 nM | 
CC(C)C[C@H](NC(=O)[C@H](Cc1ccc(O)cc1)NC(=O)[C@H](CCCCN)NC(=O)[C@H](CO)NC(=O)[C@H](Cc1ccc(O)cc1)NC(=O)[C@H](CC(=O)O)NC(=O)[C@H](CO)NC(=O)[C@H](CC(C)C)NC(=O)[C@H](Cc1ccccc1)NC(=O)[C@@H](NC(=O)CNC(=O)[C@H](CCC(N)=O)NC(=O)C(C)(C)NC(=O)[C@@H](N)Cc1c[nH]cn1)[C@@H](C)O)C(=O)N[C@@H](CC(=O)O)C(=O)N[C@@H](C)C(=O)N[C@@H](CCCNC(=N)N)C(=O)N[C@@H](C)C(=O)N[C@@H](C)C(=O)N[C@@H](CCCCNC(=O)COCCOCCNC(=O)COCCOCCNC(=O)CC[C@H](NC(=O)CCCCCCCCCCCCCCCCC(=O)O)C(=O)O)C(=O)N[C@@H](CC(=O)O)C(=O)N[C@@H](Cc1ccccc1)C(=O)N[C@H](C(=O)N[C@@H](CCC(N)=O)C(=O)N[C@@H](Cc1c[nH]c2ccccc12)C(=O)N[C@@H](CC(C)C)C(=O)N[C@@H](CCS(C)(=O)=O)C(=O)N[C@@H](CC(=O)O)C(=O)N[C@H](C(N)=O)[C@@H](C)O)C(C)C [TP596] (H-H[Aib]QGTFLSDYSKYLDARAAK([AEEA-AEEA-γGlu-C18 diacid])DFVQWL[Met(O2)]DT-NH2; N-terminus assumed) | 0.35 nM | 0.2 | < 5 nM | < 5 nM | > 20 nM
CC(C)C[C@H](NC(=O)[C@H](Cc1c[nH]c2ccccc12)NC(=O)[C@H](CCCCNC(=O)COCCOCCNC(=O)COCCOCCNC(=O)CC[C@H](NC(=O)CCCCCCCCCCCCCCCCCCC(=O)O)C(=O)O)NC(=O)[C@@H](NC(=O)[C@H](Cc1ccccc1)NC(=O)[C@H](CC(=O)O)NC(=O)[C@H](CCC(N)=O)NC(=O)[C@H](C)NC(=O)[C@H](C)NC(=O)[C@H](CCCNC(=N)N)NC(=O)C(C)(C)NC(=O)[C@H](CC(=O)O)NC(=O)[C@H](CC(C)C)NC(=O)[C@H](Cc1ccc(O)cc1)NC(=O)[C@H](CCCCN)NC(=O)[C@H](CO)NC(=O)[C@H](Cc1ccc(O)cc1)NC(=O)[C@H](CC(=O)O)NC(=O)[C@H](CO)NC(=O)[C@@H](NC(=O)[C@H](Cc1ccccc1)NC(=O)[C@@H](NC(=O)CNC(=O)[C@H](CCC(N)=O)NC(=O)C(C)(C)NC(=O)[C@@H](N)Cc1c[nH]cn1)[C@@H](C)O)[C@@H](C)O)C(C)C)C(=O)N[C@@H](CCS(C)(=O)=O)C(=O)N[C@@H](CC(=O)O)C(=O)N[C@H](C(N)=O)[C@@H](C)O [TP576] (H-H[Aib]QGTFTSDYSKYLD[Aib]RAAQDFVK([AEEA-AEEA-γGlu-C20 diacid])WL[Met(O2)]DT-NH2; N-terminus assumed) | 1.45 nM | 0.8 | < 5 nM | < 5 nM | 
